Measured values taken from US20040176339A1, “Antineoplastic combinations” (Wyeth, priority 2003, published 2004).

Assays:
[1] = Clinical trial of CCI-779 plus letrozole: safety/tolerability
Method: (§1) The combination of CCI-779 and letrozole in postmenopausal women with locally advanced or metastatic breast cancer is being evaluated in this clinical trial.
(§2) Randomization is in a 1:1:1 ratio (˜30 evaluable pts/arm), letrozole alone: letrozole with CCI daily (CCI daily arm): letrozole with CCI daily for 5 days every 2 weeks (CCI intermittent arm). All pts receive 2.5 mg letrozole daily.
(§3) Thus, the protocol was amended and doses were reduced to low dose (LD) schedules, 10 mg CCI daily and 30 mg CCI intermittent. As of 1 Dec.

[2] = test system: locally advanced or metastatic breast cancer; test: Clinical trial of CCI-779 plus letrozole: preliminary tumor responses (RECIST); assay type: in vivo, postmenopausal women; settings: for pts with SD 24 wk: CCI pts on HD schedules, letrozole-alone pts; for partial responses (RECIST): evaluable pts: CCI n=13 (responders on HD schedules), letrozole alone n=6; for stable disease (RECIST): evaluable pts: CCI n=13, letrozole alone n=6
Method: as §1, §2, §3

[3] = Stability of CCI-779 in parenteral cosolvent formulation; assay type: physicochemical; settings: citric acid at a concentration of less than 0.01% w/v
From the text: In this embodiment, the stability of CCI-779 in parenterally acceptable alcoholic cosolvents is enhanced by addition of an antioxidant to the formulation. Acceptable antioxidants include, but are not limited to, citric acid, d,l-α-tocopherol, BHA, BHT, monothioglycerol, ascorbic acid, propyl gallate, and mixtures thereof. Generally, the parenteral formulations useful in this embodiment of the invention will contain an antioxidant component(s) in a concentration ranging from 0.001% to 1% w/v, or 0.01% to 0.5% w/v, of the cosolvent concentrate, although lower or higher concentrations may be desired. Of the antioxidants, d,l-α-tocopherol is particularly desirable and is used at a concentration of 0.01 to 0.1% w/v with a preferred concentration of 0.075% w/v of the cosolvent concentrate.
Examples of such chelating agents include, e.g., citric acid, acetic acid, and ascorbic acid (which may function as both a classic antioxidant and a chelating agent in the present formulations). Other chelating agents include such materials as are capable of binding metal ions in solution, such as ethylene diamine tetra acetic acid (EDTA), its salts, or amino acids such as glycine are capable of enhancing the stability of CCI-779. […] Optimal concentrations for the selected antioxidant(s) can be readily determined by one of skill in the art, based upon the information provided herein.

[4] = test system: histologically diverse tumor cells; settings: cited from earlier work
[5] = test system: human tumor xenografts; settings: nude mice, cited from earlier work
[6] = test system: human glioblastoma cell line; settings: in vitro; cited from earlier work

| stability of CCI-779 in formulation [3] | SMILES | grade 3-4 toxicities ([1]; letrozole alone 2.5 mg daily, 12 pts) | pts with SD 24 wk [2] | partial responses (RECIST) [2] | stable disease (RECIST) [2] | patients with toxicity that resulted in dose delay/reduction or discontinuation ([1]; female, human, in vivo) | stable disease, pts on HD schedules ([2]; CCI HD schedules (25 mg daily / 75 mg intermittent) with letrozole) | stable disease, pts on LD schedules ([2]; CCI LD schedules (10 mg daily / 30 mg intermittent) with letrozole) | complete response (RECIST) ([2]; evaluable CCI pts n=13, responder on HD schedule) | growth of tumor cells in vitro ([4]; CNS cancer, leukemia (T-cell), breast cancer, prostate cancer and melanoma lines among the most sensitive) | cell cycle effect ([4]; in vitro tumor cells) | activity in orthotopic glioma model [5] | activity against human tumor xenografts ([5]; diverse histological types, gliomas particularly sensitive) | growth of human pancreatic tumors and breast cancer lines in vivo ([5]; several human pancreatic tumors, one of two breast cancer lines) | growth factor (platelet-derived)-induced stimulation of glioblastoma cells [6] |
| --- | --- | --- | --- | --- | --- | --- | --- | --- | --- | --- | --- | --- | --- | --- | --- |
|  | N#Cc1ccc(C(c2ccc(C#N)cc2)n2cncn2)cc1 [letrozole, reference compound] | No grade 3-4 toxicities | 1 pts | 2 pts | 4 pts |  |  |  |  |  |  |  |  |  |  |
| enhanced the stability | CO[C@H]1C[C@@H]2CC[C@@H](C)[C@@](O)(O2)C(=O)C(=O)N2CCCC[C@H]2C(=O)O[C@H]([C@H](C)C[C@@H]2CC[C@@H](OC(=O)C(C)(CO)CO)[C@H](OC)C2)CC(=O)[C@H](C)/C=C(\C)[C@@H](O)[C@@H](OC)C(=O)[C@H](C)C[C@H](C)/C=C/C=C/C=C/1C [CCI-779, Rapamycin 42-ester with 3-hydroxy-2-(hydroxymethyl)-2-methylpropionic acid] |  | 4 pts | 3 pts | 9 pts | 3 patients | 6 pts | 3 pts | 1 pts | inhibit the growth | arrested cells in the G1 phase | active | has activity against human tumor xenografts | inhibited | markedly suppressed |
